Experiments:
[1] = molecular target: PI3Kα (Homo sapiens, UniProt P42336); assay: PI3Kα activity determination; format: biochemical; conditions: 10-dose IC50 determination (n=3), 10 µM ATP
[2] = molecular target: T1, human M1 receptor (Homo sapiens, UniProt P11229); assay: Cell-based functional M1 agonist assay
T1 sequence (P11229 1-460): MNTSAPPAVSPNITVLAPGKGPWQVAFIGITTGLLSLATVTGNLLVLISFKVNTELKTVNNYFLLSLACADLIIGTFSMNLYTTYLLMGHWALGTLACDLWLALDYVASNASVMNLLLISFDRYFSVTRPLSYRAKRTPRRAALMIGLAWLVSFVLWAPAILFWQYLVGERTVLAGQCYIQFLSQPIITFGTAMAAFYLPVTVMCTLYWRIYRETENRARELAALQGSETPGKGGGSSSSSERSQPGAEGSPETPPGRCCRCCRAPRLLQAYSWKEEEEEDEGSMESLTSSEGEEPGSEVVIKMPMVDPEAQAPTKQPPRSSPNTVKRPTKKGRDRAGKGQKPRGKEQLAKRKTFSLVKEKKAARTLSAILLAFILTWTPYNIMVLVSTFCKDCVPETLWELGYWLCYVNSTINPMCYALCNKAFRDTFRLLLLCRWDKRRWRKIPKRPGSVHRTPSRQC

[3] = Dynamic light scattering aggregation; format: physicochemical; conditions: aqueous solution with 1 % DMSO

PI3Kα, sequence (P42336 whole entry): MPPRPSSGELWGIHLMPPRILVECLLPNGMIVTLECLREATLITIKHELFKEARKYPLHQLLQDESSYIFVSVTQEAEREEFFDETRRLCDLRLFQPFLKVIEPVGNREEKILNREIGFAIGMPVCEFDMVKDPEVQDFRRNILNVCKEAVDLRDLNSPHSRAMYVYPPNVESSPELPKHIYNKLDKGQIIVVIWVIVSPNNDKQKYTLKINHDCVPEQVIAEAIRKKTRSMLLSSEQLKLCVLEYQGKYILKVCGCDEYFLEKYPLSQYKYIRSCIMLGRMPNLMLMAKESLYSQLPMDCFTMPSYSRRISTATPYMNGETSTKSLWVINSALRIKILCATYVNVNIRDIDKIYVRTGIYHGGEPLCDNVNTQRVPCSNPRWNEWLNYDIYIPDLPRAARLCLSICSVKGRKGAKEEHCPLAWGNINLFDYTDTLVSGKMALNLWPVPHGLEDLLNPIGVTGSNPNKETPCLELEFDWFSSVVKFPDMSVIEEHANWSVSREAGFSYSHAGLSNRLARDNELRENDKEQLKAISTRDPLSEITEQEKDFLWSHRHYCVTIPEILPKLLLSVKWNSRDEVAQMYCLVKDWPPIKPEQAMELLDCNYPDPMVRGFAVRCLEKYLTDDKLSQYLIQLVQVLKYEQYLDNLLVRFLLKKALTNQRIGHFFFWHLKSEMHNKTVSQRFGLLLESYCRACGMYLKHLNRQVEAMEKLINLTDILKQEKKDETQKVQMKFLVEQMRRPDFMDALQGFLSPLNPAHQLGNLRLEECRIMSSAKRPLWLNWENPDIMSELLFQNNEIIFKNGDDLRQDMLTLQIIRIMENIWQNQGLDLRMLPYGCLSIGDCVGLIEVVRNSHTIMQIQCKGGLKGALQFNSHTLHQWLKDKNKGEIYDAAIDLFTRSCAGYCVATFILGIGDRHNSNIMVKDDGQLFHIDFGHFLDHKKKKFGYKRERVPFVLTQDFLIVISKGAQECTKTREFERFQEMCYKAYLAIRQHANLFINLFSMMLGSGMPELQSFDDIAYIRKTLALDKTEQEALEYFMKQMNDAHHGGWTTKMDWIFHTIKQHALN
PI3Kα, sequence (P27986 whole entry partner): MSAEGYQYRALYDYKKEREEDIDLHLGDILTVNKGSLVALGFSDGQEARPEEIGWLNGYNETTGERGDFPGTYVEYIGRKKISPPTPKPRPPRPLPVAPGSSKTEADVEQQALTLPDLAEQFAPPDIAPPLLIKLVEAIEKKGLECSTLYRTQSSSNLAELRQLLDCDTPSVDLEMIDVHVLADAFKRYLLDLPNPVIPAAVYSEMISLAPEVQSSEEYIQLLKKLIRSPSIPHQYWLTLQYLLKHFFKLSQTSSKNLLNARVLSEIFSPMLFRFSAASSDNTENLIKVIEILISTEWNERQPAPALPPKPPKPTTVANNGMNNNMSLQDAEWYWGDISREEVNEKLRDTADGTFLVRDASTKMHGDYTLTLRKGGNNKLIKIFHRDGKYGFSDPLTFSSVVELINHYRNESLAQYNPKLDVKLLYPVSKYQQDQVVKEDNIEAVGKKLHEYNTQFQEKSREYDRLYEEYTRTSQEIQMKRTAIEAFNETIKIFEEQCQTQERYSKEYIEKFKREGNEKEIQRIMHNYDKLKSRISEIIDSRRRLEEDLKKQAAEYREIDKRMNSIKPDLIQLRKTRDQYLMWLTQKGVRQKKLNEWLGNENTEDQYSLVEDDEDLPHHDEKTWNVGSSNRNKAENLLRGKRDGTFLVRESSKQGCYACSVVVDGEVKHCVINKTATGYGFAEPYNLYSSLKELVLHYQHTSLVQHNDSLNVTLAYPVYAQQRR

| SMILES | IC50 [1] [µM] | EC50 [2] [µM] | M1 agonistic activity, % of the effect caused by 100 nM acetylcholine ([2]; compound concentration of 10 µM) [%] | concentrations at which aggregate particles were observable [3] [µM] |
| --- | --- | --- | --- | --- |
| COC(=O)c1ccn2c(NCCN3CCOCC3)c(-c3cccn3C)nc2c1 [Compound 2, methyl 2-(1-methyl-1H-pyrrol-2-yl)-3-((2-morpholinoethyl)amino)imidazo[1,2-a] pyridine-7-carboxylate] | 230 ± 30 | ~5 | 34±5 | 15.5 to 250 |
| COC(=O)CNc1c(-c2ccc(OC)cc2OC)nc2ccccn12 [Compound 1, methyl 2-((2-(2,4-dimethoxyphenyl)imidazo[1,2-a]pyridin-3-yl)amino)acetate] | 131 | – | – | – |
